Biological target: truncated PI3Kα (p110α/iSH2 p85α) (Homo sapiens (Human), UniProt P42336)
Assay: PI3KA_Act fluorescence polarization kinase assay (Ki)
Assay type: biochemical
Settings: 1 mM ATP
Outline: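 p110α/iSH2 p85α (0.5 nM) was reacted with 30 μM sonicated PIP2 in 50 mM HEPES pH 7.4, 150 mM NaCl, 5 mM MgCl2, 1 mM DTT and 0.05% CHAPS for 30 min at room temperature, then stopped with EDTA. PIP3 was detected by fluorescence polarization (GST-Grp1 PH domain/TAMRA-PIP3), and Ki came from a Morrison tight-binding fit.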

truncated PI3Kα (p110α/iSH2 p85α), sequence (P42336 whole entry, the tested form may be a part): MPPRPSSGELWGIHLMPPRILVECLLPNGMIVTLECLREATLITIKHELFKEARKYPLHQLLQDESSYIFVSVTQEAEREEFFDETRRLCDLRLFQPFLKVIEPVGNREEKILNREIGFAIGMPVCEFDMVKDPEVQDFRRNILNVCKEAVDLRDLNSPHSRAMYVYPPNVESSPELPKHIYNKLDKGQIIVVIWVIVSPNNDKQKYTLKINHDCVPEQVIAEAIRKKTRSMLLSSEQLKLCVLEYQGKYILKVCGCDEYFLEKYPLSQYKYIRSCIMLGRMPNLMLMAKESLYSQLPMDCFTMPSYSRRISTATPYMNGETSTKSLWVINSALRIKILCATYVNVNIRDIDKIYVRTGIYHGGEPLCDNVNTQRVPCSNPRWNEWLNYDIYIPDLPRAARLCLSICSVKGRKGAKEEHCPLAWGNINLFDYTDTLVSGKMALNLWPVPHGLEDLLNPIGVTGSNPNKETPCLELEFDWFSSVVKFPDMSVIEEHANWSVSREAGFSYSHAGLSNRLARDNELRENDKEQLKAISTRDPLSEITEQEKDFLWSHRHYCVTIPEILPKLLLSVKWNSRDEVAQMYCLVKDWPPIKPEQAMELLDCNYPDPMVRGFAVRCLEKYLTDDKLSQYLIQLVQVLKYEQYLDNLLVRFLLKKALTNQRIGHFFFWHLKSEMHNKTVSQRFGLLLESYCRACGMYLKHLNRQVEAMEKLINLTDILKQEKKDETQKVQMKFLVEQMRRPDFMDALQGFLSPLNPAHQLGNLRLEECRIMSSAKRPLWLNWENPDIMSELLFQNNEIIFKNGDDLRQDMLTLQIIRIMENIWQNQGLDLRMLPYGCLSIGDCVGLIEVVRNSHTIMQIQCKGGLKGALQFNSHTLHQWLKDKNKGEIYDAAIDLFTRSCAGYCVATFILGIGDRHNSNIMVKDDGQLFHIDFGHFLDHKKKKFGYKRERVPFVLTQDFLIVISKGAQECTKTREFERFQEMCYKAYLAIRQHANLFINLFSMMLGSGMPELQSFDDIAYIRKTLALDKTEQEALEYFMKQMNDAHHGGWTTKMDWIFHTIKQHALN

Which “PI3KA_Act Ki” value does the source give for `CC(C)C(=O)N1CC[C@@](C)(N2CCc3c(-c4cnc(N)nc4)nc(N4CCOCC4)nc32)C1` [Example 263, 1-{(3R)-3-[4-(2-aminopyrimidin-5-yl)-2-(morpholin-4-yl)-5,6-dihydro-7H-pyrrolo[2,3-d]pyrimidin-7-yl]-3-methylpyrrolidin-1-yl}-2-methylpropan-1-one] here?
Its value is 0.122 nM.

For `CC(C)(C)C(=O)N1CC[C@](C)(N2CCc3c(-c4cnc(N)nc4)nc(N4CCOCC4)nc32)C1` [Example 264, 1-{(3S)-3-[4-(2-aminopyrimidin-5-yl)-2-(morpholin-4-yl)-5,6-dihydro-7H-pyrrolo[2,3-d]pyrimidin-7-yl]-3-methylpyrrolidin-1-yl}-2,2-dimethylpropan-1-one], which “PI3KA_Act Ki” value is on record?
The value was less than 0.018 nM.

How did the “PI3KA_Act Ki” value turn out when `C[C@]1(N2CCc3c(-c4cnc(N)nc4)nc(N4CCOCC4)nc32)CCN(C(=O)CC#N)C1` [Example 265, 3-{(3S)-3-[4-(2-aminopyrimidin-5-yl)-2-(morpholin-4-yl)-5,6-dihydro-7H-pyrrolo[2,3-d]pyrimidin-7-yl]-3-methylpyrrolidin-1-yl}-3-oxopropanenitrile] was run?
Its value is 0.048 nM.

With `C[C@@]1(N2CCc3c(-c4cnc(N)nc4)nc(N4CCOCC4)nc32)CCN(C(=O)CC#N)C1` [Example 266, 3-{(3R)-3-[4-(2-aminopyrimidin-5-yl)-2-(morpholin-4-yl)-5,6-dihydro-7H-pyrrolo[2,3-d]pyrimidin-7-yl]-3-methylpyrrolidin-1-yl}-3-oxopropanenitrile] as the compound, how does the “PI3KA_Act Ki” value read?
The value was 0.139 nM.

With `C[C@@H](O)C(=O)N1CC[C@](C)(N2CCc3c(-c4cnc(N)nc4)nc(N4CCOCC4)nc32)C1` [Example 267, (2R)-1-{(3S)-3-[4-(2-aminopyrimidin-5-yl)-2-(morpholin-4-yl)-5,6-dihydro-7H-pyrrolo[2,3-d]pyrimidin-7-yl]-3-methylpyrrolidin-1-yl}-2-hydroxypropan-1-one] as the compound, how does the “PI3KA_Act Ki” value read?
Its value is 0.041 nM.

`C[C@H](O)C(=O)N1CC[C@](C)(N2CCc3c(-c4cnc(N)nc4)nc(N4CCOCC4)nc32)C1` [Example 268, (2S)-1-{(3S)-3-[4-(2-aminopyrimidin-5-yl)-2-(morpholin-4-yl)-5,6-dihydro-7H-pyrrolo[2,3-d]pyrimidin-7-yl]-3-methylpyrrolidin-1-yl}-2-hydroxypropan-1-one] was tested. Which “PI3KA_Act Ki” value did it give?
The value was 0.100 nM.

With `C[C@@H](O)C(=O)N1CC[C@@](C)(N2CCc3c(-c4cnc(N)nc4)nc(N4CCOCC4)nc32)C1` [Example 269, (2R)-1-{(3R)-3-[4-(2-aminopyrimidin-5-yl)-2-(morpholin-4-yl)-5,6-dihydro-7H-pyrrolo[2,3-d]pyrimidin-7-yl]-3-methylpyrrolidin-1-yl}-2-hydroxypropan-1-one] as the compound, how does the “PI3KA_Act Ki” value read?
The value was 0.222 nM.

How did the “PI3KA_Act Ki” value turn out when `C[C@H](O)C(=O)N1CC[C@@](C)(N2CCc3c(-c4cnc(N)nc4)nc(N4CCOCC4)nc32)C1` [Example 270, (2S)-1-{(3R)-3-[4-(2-aminopyrimidin-5-yl)-2-(morpholin-4-yl)-5,6-dihydro-7H-pyrrolo[2,3-d]pyrimidin-7-yl]-3-methylpyrrolidin-1-yl}-2-hydroxypropan-1-one] was run?
The value was 0.074 nM.

How did the “PI3KA_Act Ki” value turn out when `CC(C)[C@@H](O)C(=O)N1CC[C@](C)(N2CCc3c(-c4cnc(N)nc4)nc(N4CCOCC4)nc32)C1` [Example 271, (2R)-1-{(3S)-3-[4-(2-aminopyrimidin-5-yl)-2-(morpholin-4-yl)-5,6-dihydro-7H-pyrrolo[2,3-d]pyrimidin-7-yl]-3-methylpyrrolidin-1-yl}-2-hydroxy-3-methylbutan-1-one] was run?
Its value is 0.016 nM.

Which “PI3KA_Act Ki” value does the source give for `CC(C)[C@H](O)C(=O)N1CC[C@](C)(N2CCc3c(-c4cnc(N)nc4)nc(N4CCOCC4)nc32)C1` [Example 272, (2S)-1-{(3S)-3-[4-(2-aminopyrimidin-5-yl)-2-(morpholin-4-yl)-5,6-dihydro-7H-pyrrolo[2,3-d]pyrimidin-7-yl]-3-methylpyrrolidin-1-yl}-2-hydroxy-3-methylbutan-1-one] here?
The value was 0.022 nM.

For `CC(C)(O)C(=O)N1CC[C@](C)(N2CCc3c(-c4cnc(N)nc4)nc(N4CCOCC4)nc32)C1` [Example 275, 1-{(3S)-3-[4-(2-aminopyrimidin-5-yl)-2-(morpholin-4-yl)-5,6-dihydro-7H-pyrrolo[2,3-d]pyrimidin-7-yl]-3-methylpyrrolidin-1-yl}-2-hydroxy-2-methylpropan-1-one], which “PI3KA_Act Ki” value is on record?
Its value is 0.030 nM.

`CC(C)(O)CN1CC[C@@](C)(N2CCc3c(-c4cnc(N)nc4)nc(N4CCOCC4)nc32)C1` [Example 276, 1-{(3R)-3-[4-(2-aminopyrimidin-5-yl)-2-(morpholin-4-yl)-5,6-dihydro-7H-pyrrolo[2,3-d]pyrimidin-7-yl]-3-methylpyrrolidin-1-yl}-2-methylpropan-2-ol] was tested. Which “PI3KA_Act Ki” value did it give?
Its value is 0.182 nM.

For `COC(C)(C)C(=O)N1CC[C@](C)(N2CCc3c(-c4cnc(N)nc4)nc(N4CCOCC4)nc32)C1` [Example 278, 1-{(3S)-3-[4-(2-aminopyrimidin-5-yl)-2-(morpholin-4-yl)-5,6-dihydro-7H-pyrrolo[2,3-d]pyrimidin-7-yl]-3-methylpyrrolidin-1-yl}-2-methoxy-2-methylpropan-1-one], which “PI3KA_Act Ki” value is on record?
Its value is less than 0.018 nM.

With `COCC(=O)N1CC[C@](C)(N2CCc3c(-c4cnc(N)nc4)nc(N4CCOCC4)nc32)C1` [Example 279, 1-{(3S)-3-[4-(2-aminopyrimidin-5-yl)-2-(morpholin-4-yl)-5,6-dihydro-7H-pyrrolo[2,3-d]pyrimidin-7-yl]-3-methylpyrrolidin-1-yl}-2-methoxyethanone] as the compound, how does the “PI3KA_Act Ki” value read?
The value was 0.027 nM.

`COCC(=O)N1CC[C@@](C)(N2CCc3c(-c4cnc(N)nc4)nc(N4CCOCC4)nc32)C1` [Example 280, 1-{(3R)-3-[4-(2-aminopyrimidin-5-yl)-2-(morpholin-4-yl)-5,6-dihydro-7H-pyrrolo[2,3-d]pyrimidin-7-yl]-3-methylpyrrolidin-1-yl}-2-methoxyethanone] was tested. Which “PI3KA_Act Ki” value did it give?
Its value is 0.154 nM.

Which “PI3KA_Act Ki” value does the source give for `CC(C)(N)CC(=O)N1CC[C@](C)(N2CCc3c(-c4cnc(N)nc4)nc(N4CCOCC4)nc32)C1.Cl` [Example 281, 3-amino-1-{(3S)-3-[4-(2-aminopyrimidin-5-yl)-2-(morpholin-4-yl)-5,6-dihydro-7H-pyrrolo[2,3-d]pyrimidin-7-yl]-3-methylpyrrolidin-1-yl}-3-methylbutan-1-one hydrochloride] here?
Its value is 0.024 nM.

`CC(C)(N)C(=O)N1CC[C@@H](N2CCc3c(-c4cnc(N)nc4)nc(N4CCOCC4)nc32)C1.Cl` [Example 282, 2-amino-1-{(3R)-3-[4-(2-aminopyrimidin-5-yl)-2-(morpholin-4-yl)-5,6-dihydro-7H-pyrrolo[2,3-d]pyrimidin-7-yl]pyrrolidin-1-yl}-2-methylpropan-1-one hydrochloride] was tested. Which “PI3KA_Act Ki” value did it give?
Its value is 4.040 nM.

`CC(C)(N)C(=O)N1CC[C@H](N2CCc3c(-c4cnc(N)nc4)nc(N4CCOCC4)nc32)C1.Cl` [Example 283, 2-amino-1-{(3S)-3-[4-(2-aminopyrimidin-5-yl)-2-(morpholin-4-yl)-5,6-dihydro-7H-pyrrolo[2,3-d]pyrimidin-7-yl]pyrrolidin-1-yl}-2-methylpropan-1-one hydrochloride] was tested. Which “PI3KA_Act Ki” value did it give?
The value was 0.208 nM.

With `CC[C@@]1(N2CCc3c(-c4cnc(N)nc4)nc(N4CCOCC4)nc32)CCN(C(=O)C(C)(C)N)C1.Cl` [Example 284, 2-amino-1-{(3R)-3-[4-(2-aminopyrimidin-5-yl)-2-(morpholin-4-yl)-5,6-dihydro-7H-pyrrolo[2,3-d]pyrimidin-7-yl]-3-ethylpyrrolidin-1-yl}-2-methylpropan-1-one hydrochloride] as the compound, how does the “PI3KA_Act Ki” value read?
Its value is 0.368 nM.

For `CC[C@]1(N2CCc3c(-c4cnc(N)nc4)nc(N4CCOCC4)nc32)CCN(C(=O)C(C)(C)N)C1.Cl` [Example 285, 2-amino-1-{(3S)-3-[4-(2-aminopyrimidin-5-yl)-2-(morpholin-4-yl)-5,6-dihydro-7H-pyrrolo[2,3-d]pyrimidin-7-yl]-3-ethylpyrrolidin-1-yl}-2-methylpropan-1-one hydrochloride], which “PI3KA_Act Ki” value is on record?
Its value is 0.089 nM.

With `CC(C)[C@@H](N)C(=O)N1CC[C@@H](N2CCc3c(-c4cnc(N)nc4)nc(N4CCOCC4)nc32)C1.Cl` [Example 286, (2R)-2-amino-1-{(3R)-3-[4-(2-aminopyrimidin-5-yl)-2-(morpholin-4-yl)-5,6-dihydro-7H-pyrrolo[2,3-d]pyrimidin-7-yl]pyrrolidin-1-yl}-3-methylbutan-1-one hydrochloride] as the compound, how does the “PI3KA_Act Ki” value read?
Its value is 5.810 nM.

How did the “PI3KA_Act Ki” value turn out when `CC(C)[C@@H](N)C(=O)N1CC[C@H](N2CCc3c(-c4cnc(N)nc4)nc(N4CCOCC4)nc32)C1.Cl` [Example 287, (2R)-2-amino-1-{(3S)-3-[4-(2-aminopyrimidin-5-yl)-2-(morpholin-4-yl)-5,6-dihydro-7H-pyrrolo[2,3-d]pyrimidin-7-yl]pyrrolidin-1-yl}-3-methylbutan-1-one hydrochloride] was run?
Its value is 0.462 nM.

`CC(C)[C@H](N)C(=O)N1CC[C@](C)(N2CCc3c(-c4cnc(N)nc4)nc(N4CCOCC4)nc32)C1.Cl` [Example 288, (2S)-2-amino-1-{(3S)-3-[4-(2-aminopyrimidin-5-yl)-2-(morpholin-4-yl)-5,6-dihydro-7H-pyrrolo[2,3-d]pyrimidin-7-yl]-3-methylpyrrolidin-1-yl}-3-methylbutan-1-one hydrochloride] was tested. Which “PI3KA_Act Ki” value did it give?
Its value is 0.141 nM.

With `CC(C)(N)C(=O)N1CC[C@@](C)(N2CCc3c(-c4cnc(N)nc4)nc(N4CCOCC4)nc32)C1.Cl` [Example 289, 2-amino-1-{(3R)-3-[4-(2-aminopyrimidin-5-yl)-2-(morpholin-4-yl)-5,6-dihydro-7H-pyrrolo[2,3-d]pyrimidin-7-yl]-3-methylpyrrolidin-1-yl}-2-methylpropan-1-one hydrochloride] as the compound, how does the “PI3KA_Act Ki” value read?
The value was 0.075 nM.

Which “PI3KA_Act Ki” value does the source give for `CCC(C)(N)C(=O)N1CC[C@](C)(N2CCc3c(-c4cnc(N)nc4)nc(N4CCOCC4)nc32)C1.Cl` (stereo partly drawn) [Example 290, 2-amino-1-{(3S)-3-[4-(2-aminopyrimidin-5-yl)-2-(morpholin-4-yl)-5,6-dihydro-7H-pyrrolo[2,3-d]pyrimidin-7-yl]-3-methylpyrrolidin-1-yl}-2-methylbutan-1-one hydrochloride] here?
The value was less than 0.018 nM.

Reference: patent publication US9260439B2, “Dihydropyrrolopyrimidine derivatives” (PFIZER INC., priority 2014, dated 2016)
